Reference: US6403606B1, “Thienopyridine derivatives and their use” (Takeda Chemical Industries Ltd., priority 1996, dated 2002)
Marks after values point to notes of the source that are not given here.

Columns and labels:
[1] = test system: fetal rat bone culture (humeri, radii and ulnae); assay: Bone resorption inhibitory activity, 45Ca release from fetal rat bone culture (Test Example 2B); format: cell-based, Sprague-Dawlay rat; conditions: 10 μM compound, 2 days culture; 45Ca release as % of control without compound (lower = more inhibition)
Protocol: (§1) The measurement of bone resorption inhibitory activity was carried out according to the method of Raisz [J. Clin. Invest., 44, 103-116 (1965)]. Namely, 50 μCi of ^45Ca (radioisotope of calcium in CaCl2 solution) was subcutaneously injected into a Sprague-Dawlay rat of 18th day of pregnancy. On the next day, the abdomen was opened and a fetal rat was taken out sterilely. The left and right humeri (radii and ulnae) were removed from the body under a dissection microscope and connective tissues and cartilages were removed as much as possible. Thus, bone culture samples were prepared. The bone was incubated in a medium (0.6 ml) of BCJb medium (Fitton-Jackson modification: GIBCO Laboratories, U.S.A.) containing 2 mg/ml of bovine serum albumin at 37° C. for 24 hours in an atmosphere of 5% of CO2 in air. The bones were cultured for an additional 2 days in the above medium containing a final concentration of 10 μM of the compound. The ratio (%) of ^45Ca released from the bone into the medium was calculated according to the following equation. [formula]
(§2) The bones from the same litter were cultured for 2 days the same manner without addition of the compound, and used as the control. The mean±standard deviation of the values for five bones of each group was calculated. The ratio (%) of this value to the control value was calculated. The results are shown in Table 4 (In the tables hereinafter, Ex. No. indicates Example No.).

Rat Adjuvant Arthritis = assay: Activity on rat adjuvant arthritis (Test Example 1B); format: in vivo, Male Lewis rats; conditions: N=6; for Body weight gain rate (%): day 14; for Edema inhibitory rate (%): left hind paw volume day 14
Protocol: Male Lewis rats (7 weeks old, Clea Japan) were sensitized by intracutaneous injection of 0.05 ml of Freund's complete adjuvant (0.5% dead tubercle bacillus cell suspension in liquid paraffin) at the right hind paw. The test drug (6.25 mg/kg or 3.13 mg/kg), in a suspension in 0.5% methyl cellulose, was administered once daily for 14 days starting just before sensitization (day 0). At the days 0 and 14, the left hind paw volume and body weight of the animals were measured using a plethysmometer (manufactured by Ugo Basile Company, Italy) and an electronic balance (EB-3200D, manufactured by Shimadzu Corporation, Japan), respectively, and paw swelling suppression rate (%) and body weight gain rate (%), relative to non-sensitized rats, were determined.
The results, expressed in mean±S.E. for each group (N=6), were compared and statistically analyzed by Dunnet method. Level of significance was set below 5%.

[2] = test system: fetal rat bone culture (humeri, radii and ulnae); assay: Bone resorption inhibitory activity, 45Ca release from fetal rat bone culture (Test Example 2A); format: cell-based, Sprague-Dawlay rat; conditions: 10 μM compound, 2 days culture; 45Ca release as % of control without compound (lower = more inhibition)
Protocol: as §1
as §2, with “2” for “4”

[3] = 6.25 mg/kg once daily for 14 days
[4] = 3.13 mg/kg once daily for 14 days

| Compound | Bone resorption inhibitory inhibitory activity (^45Ca release) (% based on the control value) [1] | melting point | Bone resorption inhibitory activity (^45Ca release) (% based on the control value) [2] | further results |
| --- | --- | --- | --- | --- |
| 7-benzyl-3-chloro-4-(3,4-dimethoxyphenyl)-2-(2-oxo-1-piperidinylmethyl)-5,6,7,8-tetrahydrothieno[2,3-b:5,4-c′]dipyridine [Example 24B] | 44** % based on the control value |  |  |  |
| 7-benzyl-3-chloro-4-(3,4-dimethoxyphenyl)-2-(2-oxo-1-pyrrolidinylmethyl)-5,6,7,8-tetrahydrothieno[2,3-b:5,4-c′]dipyridine [Example 28B] | 47** % based on the control value |  |  | Body weight gain rate (%) (Rat Adjuvant Arthritis; [3]): 19** %; Edema inhibitory rate (%) (Rat Adjuvant Arthritis; [3]): 78** % |
| 7-benzyl-3-chloro-4-(4-hydroxy-3-methoxyphenyl)-2-(2-oxo-1-pyrrolidinylmethyl)-5,6,7,8-tetrahydrothieno[2,3-b:5,4-c′]dipyridine [Example 29B] |  |  |  | Body weight gain rate (%) (Rat Adjuvant Arthritis; [4]): 12%; Edema inhibitory rate (%) (Rat Adjuvant Arthritis; [4]): 69** % |
| COc1ccc(-c2c(Cl)c(CN3CCCCCC3=O)nc3sc4c(c23)CCN(Cc2ccccc2)C4)cc1OC [Example 25B, 7-benzyl-3-chloro-4-(3,4-dimethoxyphenyl)-2-(2-oxohexamethyleneiminomethyl)-5,6,7,8-tetrahydrothieno[2,3-b:5,4-c′]dipyridine] | 52** % based on the control value | 113 to 114 °C |  |  |
| CCOC(=O)c1c(CCCCn2cncn2)nc2sc3c(c2c1-c1ccc(OC)c(OC)c1)CCN(C(=O)c1ccc(Cl)cc1)C3 [Example 28A, ethyl 7-(4-chlorobenzoyl)-4-(3,4-dimethoxyphenyl)-5,6,7,8-tetrahydro-2-[4-(1,2,4-triazol-1-yl]butyl]thieno[2,3-b:5,4-c′]dipyridine-3-carboxylate] |  | 165 to 166 °C | 67*** % based on the control value |  |
| CCOC(=O)c1c(CN(CC)CC)nc2sc3c(c2c1-c1ccc(OC)c(OC)c1)CCN(C(=O)c1ccc(Cl)cc1)C3 [Example 2A, ethyl 7-(4-chlorobenzoyl)-2-(N,N-diethylaminomethyl)-4-(3,4-dimethoxyphenyl)-5,6,7,8-tetrahydrothieno[2,3-b:5,4-c′]dipyridine-3-carboxylate] |  | 96 to 98 °C | 62** % based on the control value |  |
